Assays:
rat KCC2 = target: T1, rat KCC2 (Rattus norvegicus, UniProt Q63633); experiment: […] influx into Xenopus oocytes; format: cell-based; details: hypotonic medium, 79 mM chloride, 2 mM RbCl; 0.01 mM ouabain; inhibitor
T1 sequence (Q63633 1-1139): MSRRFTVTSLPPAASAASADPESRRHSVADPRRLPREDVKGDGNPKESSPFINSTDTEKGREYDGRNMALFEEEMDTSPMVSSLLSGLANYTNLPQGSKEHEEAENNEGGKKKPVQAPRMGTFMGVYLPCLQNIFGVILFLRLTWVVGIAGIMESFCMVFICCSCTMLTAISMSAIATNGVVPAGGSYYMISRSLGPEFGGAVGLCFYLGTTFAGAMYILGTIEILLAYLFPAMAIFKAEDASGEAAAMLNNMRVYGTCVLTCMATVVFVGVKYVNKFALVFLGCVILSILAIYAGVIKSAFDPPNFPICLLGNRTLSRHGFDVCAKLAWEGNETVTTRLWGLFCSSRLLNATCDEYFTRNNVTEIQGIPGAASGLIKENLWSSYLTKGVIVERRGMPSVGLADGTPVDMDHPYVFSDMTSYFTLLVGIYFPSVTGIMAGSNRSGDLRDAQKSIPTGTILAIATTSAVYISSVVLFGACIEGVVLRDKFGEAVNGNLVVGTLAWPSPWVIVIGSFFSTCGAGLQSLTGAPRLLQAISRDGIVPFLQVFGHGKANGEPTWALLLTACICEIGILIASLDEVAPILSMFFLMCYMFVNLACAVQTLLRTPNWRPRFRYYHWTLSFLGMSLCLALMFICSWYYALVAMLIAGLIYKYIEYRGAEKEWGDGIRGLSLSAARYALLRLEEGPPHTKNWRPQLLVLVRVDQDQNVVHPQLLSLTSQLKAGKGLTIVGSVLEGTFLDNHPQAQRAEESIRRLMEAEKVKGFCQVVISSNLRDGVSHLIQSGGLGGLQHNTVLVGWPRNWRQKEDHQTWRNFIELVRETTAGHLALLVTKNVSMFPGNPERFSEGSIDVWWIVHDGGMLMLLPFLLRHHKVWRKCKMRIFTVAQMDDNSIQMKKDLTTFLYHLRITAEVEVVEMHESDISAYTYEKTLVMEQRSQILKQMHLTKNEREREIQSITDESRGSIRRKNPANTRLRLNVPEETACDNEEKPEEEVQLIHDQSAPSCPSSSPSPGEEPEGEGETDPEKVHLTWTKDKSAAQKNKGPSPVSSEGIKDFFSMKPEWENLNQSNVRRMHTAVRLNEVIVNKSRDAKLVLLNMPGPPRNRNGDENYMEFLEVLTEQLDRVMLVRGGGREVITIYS

C. elegans KCC-2 = target: T2, C. elegans KCC-2 (Caenorhabditis elegans, UniProt G5EEC9); experiment: […] influx into Xenopus oocytes; format: cell-based
T2 sequence (G5EEC9 1-1079): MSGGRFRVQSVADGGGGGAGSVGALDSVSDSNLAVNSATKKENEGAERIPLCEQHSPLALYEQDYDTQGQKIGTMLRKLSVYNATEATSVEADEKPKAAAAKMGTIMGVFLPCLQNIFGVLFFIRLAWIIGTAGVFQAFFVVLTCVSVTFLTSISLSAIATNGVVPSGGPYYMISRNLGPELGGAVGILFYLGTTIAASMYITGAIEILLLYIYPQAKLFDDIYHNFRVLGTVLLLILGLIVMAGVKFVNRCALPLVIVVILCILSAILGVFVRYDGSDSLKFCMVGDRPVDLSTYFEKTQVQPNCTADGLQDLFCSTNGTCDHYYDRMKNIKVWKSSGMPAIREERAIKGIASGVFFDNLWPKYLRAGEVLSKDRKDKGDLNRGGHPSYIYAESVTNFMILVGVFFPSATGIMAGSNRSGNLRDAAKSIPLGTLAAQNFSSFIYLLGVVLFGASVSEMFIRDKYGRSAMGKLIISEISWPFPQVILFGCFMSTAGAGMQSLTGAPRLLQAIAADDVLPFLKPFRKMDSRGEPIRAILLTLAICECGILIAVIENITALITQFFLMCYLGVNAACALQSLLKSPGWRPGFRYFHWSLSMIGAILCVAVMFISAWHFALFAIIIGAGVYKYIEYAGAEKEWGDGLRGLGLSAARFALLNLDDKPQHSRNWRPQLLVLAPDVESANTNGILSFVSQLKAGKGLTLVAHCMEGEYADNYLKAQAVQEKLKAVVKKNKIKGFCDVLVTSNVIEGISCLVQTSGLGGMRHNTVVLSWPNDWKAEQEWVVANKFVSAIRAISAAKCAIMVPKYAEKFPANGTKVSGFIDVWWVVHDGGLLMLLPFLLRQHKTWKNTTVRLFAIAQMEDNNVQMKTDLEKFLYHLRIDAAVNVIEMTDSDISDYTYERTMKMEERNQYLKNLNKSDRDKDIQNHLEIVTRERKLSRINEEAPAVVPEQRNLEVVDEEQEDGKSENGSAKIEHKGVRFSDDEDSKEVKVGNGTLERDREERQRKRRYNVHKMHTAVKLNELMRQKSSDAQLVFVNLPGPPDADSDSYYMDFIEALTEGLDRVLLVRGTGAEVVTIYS

IC50 (rat KCC2): 72 ± 16 µM
IC50 (C. elegans KCC-2): 32 ± 3 µM
Structure (SMILES): CCCCNc1cc(C(=O)O)cc(S(N)(=O)=O)c1Oc1ccccc1 [bumetanide]
